What follows are molecules tested against T1, F508del (Homo sapiens, UniProt P13569, DEL508-508) (assay: Protocol 1: membrane potential optical assay (FLIPR III, voltage sensing dye), identification of potentiator compounds). Details: Table 3, compounds of Table 1.
T1 construct: expressed in transfected cells
Assay type: cell-based
Outline: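 NIH 3T3 fibroblasts stably expressing F508del were cultured at 27° C for 24 hrs for temperature correction, then treated with compounds or DMSO and loaded with a voltage-sensing redistribution dye. Forskolin added with a Cl⁻ gradient activated the channel; membrane-potential fluorescence on FLIPR III reported increased gating.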

T1 sequence (P13569 with tags, fused parts or gaps DEL508-508): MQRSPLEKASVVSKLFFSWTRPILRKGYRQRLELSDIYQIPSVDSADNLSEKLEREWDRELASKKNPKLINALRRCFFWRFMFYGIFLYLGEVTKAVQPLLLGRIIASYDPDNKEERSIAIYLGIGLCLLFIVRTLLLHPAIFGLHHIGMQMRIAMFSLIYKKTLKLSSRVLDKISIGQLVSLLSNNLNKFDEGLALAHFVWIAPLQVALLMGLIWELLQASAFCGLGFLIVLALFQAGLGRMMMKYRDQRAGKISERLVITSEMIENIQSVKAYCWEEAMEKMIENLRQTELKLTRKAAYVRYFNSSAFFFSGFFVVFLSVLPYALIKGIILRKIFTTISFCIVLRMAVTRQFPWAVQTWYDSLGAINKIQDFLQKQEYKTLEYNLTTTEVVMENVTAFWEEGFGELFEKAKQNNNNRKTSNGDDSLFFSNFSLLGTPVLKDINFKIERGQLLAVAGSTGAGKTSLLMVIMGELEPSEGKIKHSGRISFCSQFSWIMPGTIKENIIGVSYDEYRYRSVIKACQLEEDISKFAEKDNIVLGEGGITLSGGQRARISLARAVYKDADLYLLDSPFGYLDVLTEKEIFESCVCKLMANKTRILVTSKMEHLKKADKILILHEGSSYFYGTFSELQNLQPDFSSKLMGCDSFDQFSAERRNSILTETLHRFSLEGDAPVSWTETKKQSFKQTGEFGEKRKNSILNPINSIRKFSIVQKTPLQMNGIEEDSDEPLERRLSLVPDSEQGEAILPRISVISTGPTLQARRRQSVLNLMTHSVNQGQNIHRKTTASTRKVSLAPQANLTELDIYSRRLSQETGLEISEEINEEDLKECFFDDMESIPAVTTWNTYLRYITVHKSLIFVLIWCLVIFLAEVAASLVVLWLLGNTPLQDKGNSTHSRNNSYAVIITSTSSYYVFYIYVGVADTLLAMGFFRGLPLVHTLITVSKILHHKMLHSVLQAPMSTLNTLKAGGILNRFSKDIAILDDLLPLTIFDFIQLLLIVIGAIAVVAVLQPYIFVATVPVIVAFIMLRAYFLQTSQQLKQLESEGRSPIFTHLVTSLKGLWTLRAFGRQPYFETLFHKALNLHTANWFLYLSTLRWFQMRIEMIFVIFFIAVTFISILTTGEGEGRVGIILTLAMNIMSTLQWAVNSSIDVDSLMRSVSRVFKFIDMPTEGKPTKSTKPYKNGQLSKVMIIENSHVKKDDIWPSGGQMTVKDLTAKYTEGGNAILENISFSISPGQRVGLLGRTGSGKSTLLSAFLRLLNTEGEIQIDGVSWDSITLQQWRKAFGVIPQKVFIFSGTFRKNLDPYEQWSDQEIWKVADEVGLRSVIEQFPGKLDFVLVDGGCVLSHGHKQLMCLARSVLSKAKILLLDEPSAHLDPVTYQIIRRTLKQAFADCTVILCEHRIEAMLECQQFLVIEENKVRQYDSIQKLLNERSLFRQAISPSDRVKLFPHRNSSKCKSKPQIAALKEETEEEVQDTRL

| Compound | EC30 |
| --- | --- |
| CC(Oc1nc(N2C[C@@H](C)CC2(C)C)c(C(=O)NS(=O)(=O)c2cccc(N)n2)cc1F)C1CCCC1 (stereo partly drawn) [Compound 1966, N-[(6-amino-2-pyridyl)sulfonyl]-6-(1-cyclopentylethoxy)-5-fluoro-2-[(4S)-2,2,4-trimethylpyrrolidin-1-yl]pyridine-3-carboxamide] | +++ (“+++” means <3 uM) |
| CC1CN(c2nc(C(C)(C)C)c(C3=CCN(C)CC3)cc2C(=O)NS(=O)(=O)c2cccc(N)n2)C(C)(C)C1 (centres unmarked) [Compound 1382, N-[(6-amino-2-pyridyl)sulfonyl]-6-tert-butyl-5-(1-methyl-3,6-dihydro-2H-pyridin-4-yl)-2-(2,2,4-trimethylpyrrolidin-1-yl)pyridine-3-carboxamide] | + (“+” means greater than 10 uM) |
| COc1ncc(-c2ccc(C(=O)NS(=O)(=O)c3ccc[nH]c3=O)c(Oc3c(C)cc(C)cc3C)n2)cc1C [Compound 930, 6-(6-methoxy-5-methyl-3-pyridyl)-N-[(2-oxo-1H-pyridin-3-yl)sulfonyl]-2-(2,4,6-trimethylphenoxy)pyridine-3-carboxamide] | ++ (“++” means between 3 uM and 10 uM) |
| CC(C)COc1cc(F)cc(-c2ccc(C(=O)NS(=O)(=O)C3CC3)c(N3C[C@@H](C)CC3(C)C)n2)c1 [Compound 1525, N-cyclopropylsulfonyl-6-(3-fluoro-5-isobutoxy-phenyl)-2-[(4S)-2,2,4-trimethylpyrrolidin-1-yl]pyridine-3-carboxamide] | +++ (“+++” means <3 uM) |
| Cc1cc(F)cc(-c2ccc(C(=O)NS(=O)(=O)N3CC[C@H](N)C3)c(N3C[C@@H](C)CC3(C)C)n2)c1 [Compound 1819, N-[(3S)-3-aminopyrrolidin-1-yl]sulfonyl-6-(3-fluoro-5-methyl-phenyl)-2-[(4S)-2,2,4-trimethylpyrrolidin-1-yl]pyridine-3-carboxamide] | ++ (“++” means between 3 uM and 10 uM) |
| CC(C)COc1cc(F)cc(-c2ccc(C(=O)NS(=O)(=O)c3cccc(N)n3)c(OC3CCC(F)(F)CC3)n2)c1 [Compound 961, N-[(6-amino-2-pyridyl)sulfonyl]-2-(4,4-difluorocyclohexoxy)-6-(3-fluoro-5-isobutoxy-phenyl)pyridine-3-carboxamide] | +++ (“+++” means <3 uM) |
| COc1ccc(-c2ccc(C(=O)NS(=O)(=O)c3ccc[nH]c3=O)c(N3C[C@@H](C)CC3(C)C)n2)c(OC)n1 [Compound 1853, 6-(2,6-dimethoxy-3-pyridyl)-N-[(2-oxo-1H-pyridin-3-yl)sulfonyl]-2-[(4S)-2,2,4-trimethylpyrrolidin-1-yl]pyridine-3-carboxamide] | ++ (“++” means between 3 uM and 10 uM) |
| COc1ccc(S(=O)(=O)NC(=O)c2ccc(-c3cc(F)cc(OCC(C)C)c3)nc2N2C[C@@H](C)CC2(C)C)cc1 [Compound 1876, 6-(3-fluoro-5-isobutoxy-phenyl)-N-(4-methoxyphenyl)sulfonyl-2-[(4S)-2,2,4-trimethylpyrrolidin-1-yl]pyridine-3-carboxamide] | +++ (“+++” means <3 uM) |
| Cc1cc(C)c(Oc2nc(-c3cnn(CC(C)C)c3)ccc2C(=O)NS(=O)(=O)c2cccc(N)n2)c(C)c1 [Compound 1177, N-[(6-amino-2-pyridyl)sulfonyl]-6-(1-isobutylpyrazol-4-yl)-2-(2,4,6-trimethylphenoxy)pyridine-3-carboxamide] | ++ (“++” means between 3 uM and 10 uM) |
| C[C@@H]1CN(c2nc(-c3cc(F)cc(OCC(C)(C)O)c3)ccc2C(=O)NS(=O)(=O)c2ccccc2)C(C)(C)C1 [Compound 1581, N-(benzenesulfonyl)-6-[3-fluoro-5-(2-hydroxy-2-methyl-propoxy)phenyl]-2-[(4S)-2,2,4-trimethylpyrrolidin-1-yl]pyridine-3-carboxamide] | +++ (“+++” means <3 uM) |
| Cc1cc(C)c(Oc2nc(C3=CCC(C(C)C)CC3)ccc2C(=O)NS(=O)(=O)c2cccc(N)n2)c(C)c1 (centres unmarked) [Compound 1630, N-[(6-amino-2-pyridyl)sulfonyl]-6-(4-isopropylcyclohexen-1-yl)-2-(2,4,6-trimethylphenoxy)pyridine-3-carboxamide] | +++ (“+++” means <3 uM) |
| Cc1cc(C)c(Oc2nc(C3=CC4CCC3C4)ccc2C(=O)NS(=O)(=O)c2cccc(N)n2)c(C)c1 (centres unmarked) [Compound 1518, N-[(6-amino-2-pyridyl)sulfonyl]-6-(3-bicyclo[2.2.1]hept-2-enyl)-2-(2,4,6-trimethylphenoxy)pyridine-3-carboxamide] | +++ (“+++” means <3 uM) |
| C[C@@H]1CN(c2nc(C3CC(C)(C)CCC3=O)ccc2C(=O)NS(=O)(=O)c2cccnc2N)C(C)(C)C1 (stereo partly drawn) [Compound 1793, N-[(2-amino-3-pyridyl)sulfonyl]-6-(5,5-dimethyl-2-oxo-cyclohexyl)-2-[(4S)-2,2,4-trimethylpyrrolidin-1-yl]pyridine-3-carboxamide] | +++ (“+++” means <3 uM) |
| CC(C)COc1cc(F)cc(-c2ccc(C(=O)NS(=O)(=O)c3ccn[nH]3)c(N3C[C@H](C)C[C@@H](C)C3)n2)c1 [Compound 942, 2-[(3R,5R)-3,5-dimethyl-1-piperidyl]-6-(3-fluoro-5-isobutoxy-phenyl)-N-(1H-pyrazol-5-ylsulfonyl)pyridine-3-carboxamide] | +++ (“+++” means <3 uM) |
| Cc1cc(C)c(Oc2nc(C3=CCNCC3)ccc2C(=O)NS(=O)(=O)c2cccc(N)n2)c(C)c1 [Compound 1643, N-[(6-amino-2-pyridyl)sulfonyl]-6-(1,2,3,6-tetrahydropyridin-4-yl)-2-(2,4,6-trimethylphenoxy)pyridine-3-carboxamide] | ++ (“++” means between 3 uM and 10 uM) |
| CC(C)Cc1ccnn1-c1ccc(C(=O)NS(=O)(=O)c2cccc(N)n2)c(N2C[C@@H](C)CC2(C)C)n1 [Compound 1431, N-[(6-amino-2-pyridyl)sulfonyl]-6-(5-isobutylpyrazol-1-yl)-2-[(4S)-2,2,4-trimethylpyrrolidin-1-yl]pyridine-3-carboxamide] | +++ (“+++” means <3 uM) |
| COc1ccc(C)c(-c2nc(N3CC(C)CC3(C)C)c(C(=O)NS(=O)(=O)c3cccc(N)n3)cc2C)c1 (centres unmarked) [Compound 1287, N-[(6-amino-2-pyridyl)sulfonyl]-6-(5-methoxy-2-methyl-phenyl)-5-methyl-2-(2,2,4-trimethylpyrrolidin-1-yl)pyridine-3-carboxamide] | +++ (“+++” means <3 uM) |
| CC(C)COc1cc(F)cc(-c2ccc(C(=O)NS(=O)(=O)c3cccc(N)n3)c(OC3CC(OCc4ccccc4)C3)n2)c1 (centres unmarked) [Compound 1559, N-[(6-amino-2-pyridyl)sulfonyl]-2-(3-benzyloxycyclobutoxy)-6-(3-fluoro-5-isobutoxy-phenyl)pyridine-3-carboxamide] | +++ (“+++” means <3 uM) |
| CC(C)COc1cc(F)cc(-c2ccc(C(=O)NS(=O)(=O)c3cccc(N)n3)c(N3C[C@@H](C)C[C@H](C)C3)n2)c1 [Compound 1210, N-[(6-amino-2-pyridyl)sulfonyl]-2-[(3S,5S)-3,5-dimethyl-1-piperidyl]-6-(3-fluoro-5-isobutoxy-phenyl)pyridine-3-carboxamide] | +++ (“+++” means <3 uM) |
| CC(C)COc1cc(F)cc(-c2ccc(C(=O)NS(=O)(=O)c3cccc(N)n3)c(OCCCc3cccnc3)n2)c1 [Compound 1691, N-[(6-amino-2-pyridyl)sulfonyl]-6-(3-fluoro-5-isobutoxy-phenyl)-2-[3-(3-pyridyl)propoxy]pyridine-3-carboxamide] | ++ (“++” means between 3 uM and 10 uM) |

— US10758534B2 (Vertex Pharmaceuticals Incorporated, priority 2014, dated 2020)
